Series [1] in a line: Urinary pharmacokinetics after single oral dose, phase I. The format is in vivo, healthy men. The note with it: male, human, urine. The protocol: Urine was collected for pharmacokinetic analyses before dosing (spot sample) and 0–3, 3–6, 6–9, 9–12, 12–24, 24–36 and 36–48 hours after dosing (pooled samples). Samples for determination of AZD4831 in urine were analysed by Covance Laboratories Ltd. (Harrogate, UK). […] This method was validated prior to sample analysis in the range 20–20 000 nmol L^−1 in urine, using a 25 μL sample aliquot.

For series [2] the following is noted: preclinical study in dogs; cited from earlier work.
Series [3] deals with xanthine oxidase. On the set-up: method as in E Michaëlsson et al., manuscript in preparation. Particulars: in vitro; ref E Michaëlsson et al., manuscript in preparation; cited from earlier work.
The test system of series [4] is urate anion exchanger 1 (URAT1; SLC22A12). On the set-up: method as in E Michaëlsson et al., manuscript in preparation. The note with it: in vitro; ref E Michaëlsson et al., manuscript in preparation; cited from earlier work.

Entries after “also recorded” stand apart in the source; their conditions may differ. Read-outs that look alike come from different tables or passages of the source.

In the case of `C[C@@H](N)c1cc(Cl)ccc1Cn1c(=S)[nH]c(=O)c2[nH]ccc21` [AZD4831], the CL renal was 252 mL/min in series [1] (5 mg, 5 mg fasted, geometric mean (CV), read-out: CLR (converted)); 257 mL/min in series [1] (5 mg, 5 mg fasted, read-out: mean renal clearance (converted)); 240 mL/min in series [1] (15 mg, 15 mg fasted, geometric mean (CV), read-out: CLR (converted)); 162 mL/min in series [1] (45 mg, 45 mg fasted, geometric mean (CV), read-out: CLR (converted)); 157 mL/min in series [1] (135 mg, 135 mg fasted, geometric mean (CV), read-out: CLR (converted)); 132 mL/min in series [1] (405 mg, 405 mg fasted, geometric mean (CV), read-out: CLR (converted)). Further, in series [1] (405 mg, 405 mg fasted, read-out: mean renal clearance (converted)), the CL renal is 148 mL/min. In series [2], the “dose at which no adverse effects were observed” value is recorded as 20 mg kg^−1 per day. Also, in series [3], the “inhibition of xanthine oxidase” value is “does not inhibit; also recorded: is not a substrate or an inhibitor”. The “inhibition of URAT1 uric acid transport” value in series [4] is recorded as “does not inhibit”.

(Values after paper PMC6422671 (British Journal of Clinical Pharmacology, 2019).)
